Assays:
[1] = tested on: ECHCG (Barnyardgrass); experiment: Postemergence herbicidal evaluation; format: in vivo, Echinochloa crus-galli; settings: postemergence
Outline: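 ~2-wk seedlings; postemergence spray, 40 psi; vehicle 1:1 acetone:water + 0.5% Tween 20; rate ≈0.0156–0.500 kg/ha; greenhouse hold; scored 4–5 wk after treatment, 0–9 scale vs control; repeat tests averaged.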

[2] = tested on: CHEAL (Lambsquarters, Common); experiment: Preemergence herbicidal evaluation; format: in vivo, Chenopodium album; settings: rated 4-5 weeks after treatment
Outline: (§1)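 Each species is sown separately in potting soil over roughly an inch of soil before any emergence. The soil surface then receives an aqueous acetone spray delivering about 0.0156 to 0.500 kg/ha of compound. After four to five weeks, injury is scored from 0 to 9 relative to a control.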

[3] = tested on: ORYSAT (Rice, Tebonnet); experiment: Preemergence herbicidal evaluation; format: in vivo, Oryza sativa, (L.) Tebonnet; settings: rated 4-5 weeks after treatment
Outline: as §1

[4] = tested on: ECHORC (Watergrass (Calif.)); experiment: Preemergence weed control under flooded paddy conditions; format: in vivo, Echinochloa oryzoides; settings: rated 3-4 weeks after treatment
Outline: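 First, seeds or propagules go into the top 0.5 cm of silt loam; next, water is held 1.5 to 3 cm over the soil; then compound (50/50 acetone/water) is pipetted into it at about 0.0313 to 0.500 kg/ha; finally plants are rated visually 0-9 after three to four weeks.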

[5] = tested on: CYPSE (Flatsedge); experiment: as above; format: in vivo, Cyperus serotinus; settings: rated 3-4 weeks after treatment
Outline: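 Seeds or propagules sown in top 0.5 cm of silt loam soil, flooded 1.5 to 3 cm above surface throughout. Compound in 50/50 v/v aqueous/acetone pipetted into flood water at about 0.0313 to 0.500 kg/ha. Visual 0-9 rating versus control after three to four weeks in greenhouse.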

[6] = tested on: ORYSAT (Rice, Tebonnet); experiment: Rice tolerance to post-transplant applications, flooded paddy conditions (Table III); format: in vivo, Oryza sativa, (L.) Tebonnet; settings: in vivo
Outline: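 Injury scored 0-9 by eye against untreated control, judging stand, vigor, malformation, size and chlorosis, three to four weeks after treatment. Compound in 50/50 aqueous/acetone, about 0.0313 to 0.500 kg/ha, was applied to paddy water (1.5 to 3 cm depth) three days after transplanting paired ten-day-old Tebonnet rice seedlings.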

[7] = tested on: MOOVA (Monochoria); experiment: Postemergence weed control under flooded paddy conditions; format: in vivo, Monochoria vaginalis; settings: postemergence weeds, 3-4 weeks after treatment
Outline: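 Herbicidal effect is judged by eye on a 0–9 scale versus control, 3–4 weeks after dosing. Dosing is into flood water kept 1.5–3 cm over the soil, at about 0.0313–0.500 kg/ha in aqueous/acetone 50/50 v/v, on 3–5 cm weeds and 1.5–2.5-leaf rice seedlings.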

[8] = tested on: ORYSAT (Rice, Tebonnet); experiment: Rice tolerance to post-transplant applications, flooded paddy conditions (Table IV); format: in vivo, Oryza sativa, (L.) Tebonnet; settings: in vivo
Outline: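 Post-transplant paddy test in greenhouse: a.i. about 0.0313 to 0.500 kg/ha applied into the flood water. Plants are rated 0-9 for overall appearance relative to control three to four weeks on.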

[9] = tested on: IPOSS (Morningglory Spp.); experiment: Postemergence herbicidal evaluation; format: in vivo, Ipomoea Spp.
Experimental: In the tests, seedling plants are grown in jiffy flats for about two weeks. The test compounds are dispersed in 50/50 acetone/water mixtures containing 0.5% TWEEN®20, a polyoxyethylene sorbitan monolaurate surfactant of Atlas Chemical Industries, in sufficient quantities to provide the equivalent of about 0.0156 kg to 0.500 kg per hectare of active compound when applied to the plants through a spray nozzle operating at 40 psi for a predetermined time. After spraying, the plants are placed on greenhouse benches and are cared for in accordance with conventional greenhouse procedures. From four to five weeks after treatment, the seedling plants are examined and rated according to the rating system set forth below. Where more than one test is involved for a given compound, the data are averaged.
Plant species employed in these evaluations are reported by header abbreviation, common name and scientific name.
(§2) Results of herbicide evaluation are expressed on a rating scale (0-9). The scale is based upon a visual observation of plant stand, vigor, malformation, size, chlorosis and overall plant appearance as compared with a control.

[10] = tested on: IPOSS (Morningglory Spp.); experiment: Preemergence herbicidal evaluation; format: in vivo, Ipomoea Spp.; settings: rated 4-5 weeks after treatment
From the text: as §2
The preemergence herbicidal activity of the test compounds of the present invention is exemplified by the following tests in which the seeds of a variety of monocotyledonous and dicotyledonous plants are separately mixed with potting soil and planted on top of approximately one inch of soil in separate pint cups. After planting, the cups are sprayed with the selected aqueous acetone solution containing test compound in sufficient quantity to provide the equivalent of about 0.0156 to 0.500 kg per hectare of test compound per cup. The treated cups are then placed on greenhouse benches, watered and cared for in accordance with conventional greenhouse procedures. From four to five weeks after treatment, the tests are terminated and each cup is examined and rated according to the rating system provided in Example 37.
The compounds evaluated are reported by compound number given in Example 37.

In the case of CCOC(=O)CN1C(=O)C(CC(=O)O)S/C1=N/c1cc(-n2c(=O)cc(C(F)(F)F)n(C)c2=O)c(F)cc1Cl (centres unmarked) [Compound 16], the ECHCG herbicidal rating ([1]; rate 0.0157 kg/ha) is reported as 3.0, the ECHCG herbicidal rating ([1]; rate 0.0313 kg/ha) is reported as 8.8 and the ECHCG herbicidal rating ([1]; rate 0.0625 kg/ha) is reported as 9.0. The ECHCG herbicidal rating ([1]; rate 0.1250 kg/ha) was 9.0, the ECHCG herbicidal rating ([1]; rate 0.2500 kg/ha) was 9.0 and the “CHEAL preemergence herbicidal rating” value ([2]; rate 0.0156 kg/ha) was 5.7. The “CHEAL preemergence herbicidal rating” value ([2]; rate 0.0313 kg/ha) was 8.4, the “CHEAL preemergence herbicidal rating” value ([2]; rate 0.0625 kg/ha) was 8.8 and the “CHEAL preemergence herbicidal rating” value ([2]; rate 0.1250 kg/ha) was 9.0. For the same molecule, the “CHEAL preemergence herbicidal rating” value ([2]; rate 0.2500 kg/ha) was 9.0, the “CHEAL preemergence herbicidal rating” value ([2]; rate 0.5000 kg/ha) was 9.0 and the “ORYSAT preemergence herbicidal rating” value ([3]; rate 0.0156 kg/ha) was 0.1. The “ORYSAT preemergence herbicidal rating” value ([3]; rate 0.0313 kg/ha) was 0.3, the “ORYSAT preemergence herbicidal rating” value ([3]; rate 0.0625 kg/ha) was 1.0 and the “ORYSAT preemergence herbicidal rating” value ([3]; rate 0.1250 kg/ha) was 2.2. For the same molecule, the “ORYSAT preemergence herbicidal rating” value ([3]; rate 0.2500 kg/ha) was 4.3, the “ORYSAT preemergence herbicidal rating” value ([3]; rate 0.5000 kg/ha) was 6.4 and the “Herbicidal rating ECHORC” value ([4]; 0.0313 kg/ha) was 0.0. For the same molecule, the “Herbicidal rating ECHORC” value ([4]; 0.0625 kg/ha) was 0.0, the “Herbicidal rating ECHORC” value ([4]; 0.1250 kg/ha) was 0.0 and the “Herbicidal rating ECHORC” value ([4]; 0.2500 kg/ha) was 0.0. For the same molecule, the “Herbicidal rating CYPSE” value ([5]; 0.0313 kg/ha) was 0.0, the “Herbicidal rating CYPSE” value ([5]; 0.0625 kg/ha) was 0.0 and the “Herbicidal rating CYPSE” value ([5]; 0.1250 kg/ha) was 0.0. The “Herbicidal rating CYPSE” value ([5]; 0.2500 kg/ha) was 0.0, the “Herbicidal rating ORYSAT (rice tolerance)” value (“Herbicidal rating ORYSAT” for short) [6] was 0.0 and the “Herbicidal rating MOOVA” value ([7]; rate 0.0313 kg/ha) was 9.0. The “Herbicidal rating MOOVA” value ([7]; rate 0.0625 kg/ha) was 9.0, the “Herbicidal rating MOOVA” value ([7]; rate 0.1250 kg/ha) was 9.0 and the “Herbicidal rating MOOVA” value ([7]; rate 0.2500 kg/ha) was 3.0. The “Herbicidal rating ORYSAT” value [8] was 0.0.
CCOC(=O)CN1C(=O)C(=Cc2ccccc2)SC1=Nc1cc(-n2c(=O)cc(C(F)(F)F)n(C)c2=O)c(F)cc1Cl [Compound 19, Ethyl 5-benzylidene-2-{{2-chloro-5-[3,6-dihydro-3-methyl-2,6-dioxo-4-(trifluoromethyl)-1(2H)-pyrimidinyl]-4-fluorophenyl}imino}-4-oxo-3-thiazolidineacetate] was tested, and the ECHCG herbicidal rating ([1]; rate 0.0158 kg/ha) was 1.0, the ECHCG herbicidal rating ([1]; rate 0.0315 kg/ha) was 2.0 and the ECHCG herbicidal rating ([1]; rate 0.0630 kg/ha) was 2.0. For the same molecule, the “CHEAL preemergence herbicidal rating” value ([2]; rate 0.1250 kg/ha) was 9.0, the “CHEAL preemergence herbicidal rating” value ([2]; rate 0.2500 kg/ha) was 9.0 and the “ORYSAT preemergence herbicidal rating” value ([3]; rate 0.1250 kg/ha) was 0.0. For the same molecule, the “ORYSAT preemergence herbicidal rating” value ([3]; rate 0.2500 kg/ha) was 0.0, the “Herbicidal rating ECHORC” value ([4]; 0.1160 kg/ha) was 7.0 and the “Herbicidal rating ECHORC” value ([4]; 0.2310 kg/ha) was 7.0. For the same molecule, the “Herbicidal rating ECHORC” value ([4]; 0.4630 kg/ha) was 9.0, the “Herbicidal rating CYPSE” value ([5]; 0.1160 kg/ha) was 4.0 and the “Herbicidal rating CYPSE” value ([5]; 0.2310 kg/ha) was 4.0. For the same molecule, the “Herbicidal rating CYPSE” value ([5]; 0.4630 kg/ha) was 4.0, the “Herbicidal rating ORYSAT” value [6] was 3.0 and the “Herbicidal rating MOOVA” value ([7]; rate 0.1160 kg/ha) was 9.0. For the same molecule, the “Herbicidal rating MOOVA” value ([7]; rate 0.2310 kg/ha) was 9.0, the “Herbicidal rating MOOVA” value ([7]; rate 0.4630 kg/ha) was 9.0 and the “Herbicidal rating ORYSAT” value [8] was 3.0.
In the case of C=CCN1C(=O)CSC1=Nc1cc(N2C(=O)C3=C(CCCC3)C2=O)c(F)cc1Cl [Compound 2, N-{5-[(3-allyl-4-oxo-2-thiazolidinylidene)amino]-4-chloro-2-fluorophenyl}-1-cyclohexene-1,2-dicarboximide], the IPOSS herbicidal rating ([9]; rate 0.0157 kg/ha) is reported as 4.0, the IPOSS herbicidal rating ([9]; rate 0.0313 kg/ha) is reported as 4.0 and the IPOSS herbicidal rating ([9]; rate 0.0625 kg/ha) is reported as 4.0. For the same molecule, the IPOSS herbicidal rating ([9]; rate 0.1250 kg/ha) was 6.0, the IPOSS herbicidal rating ([9]; rate 0.2500 kg/ha) was 9.0 and the IPOSS herbicidal rating ([9]; rate 0.5000 kg/ha) was 9.0. For the same molecule, the ECHCG herbicidal rating ([1]; rate 0.0157 kg/ha) was 0.0, the ECHCG herbicidal rating ([1]; rate 0.0313 kg/ha) was 0.0 and the ECHCG herbicidal rating ([1]; rate 0.0625 kg/ha) was 0.0. The ECHCG herbicidal rating ([1]; rate 0.1250 kg/ha) was 0.0, the ECHCG herbicidal rating ([1]; rate 0.2500 kg/ha) was 0.0 and the ECHCG herbicidal rating ([1]; rate 0.5000 kg/ha) was 0.0. For the same molecule, the “CHEAL preemergence herbicidal rating” value ([2]; rate 0.0313 kg/ha) was 7.0, the “CHEAL preemergence herbicidal rating” value ([2]; rate 0.2500 kg/ha) was 9.0 and the “CHEAL preemergence herbicidal rating” value ([2]; rate 0.5000 kg/ha) was 9.0. The “IPOSS preemergence herbicidal rating” value ([10]; rate 0.0313 kg/ha) was 0.0, the “IPOSS preemergence herbicidal rating” value ([10]; rate 0.0625 kg/ha) was 0.0 and the “IPOSS preemergence herbicidal rating” value ([10]; rate 0.1250 kg/ha) was 0.0. For the same molecule, the “IPOSS preemergence herbicidal rating” value ([10]; rate 0.2500 kg/ha) was 0.0, the “IPOSS preemergence herbicidal rating” value ([10]; rate 0.5000 kg/ha) was 0.0 and the “ORYSAT preemergence herbicidal rating” value ([3]; rate 0.0313 kg/ha) was 2.0. The “ORYSAT preemergence herbicidal rating” value ([3]; rate 0.0625 kg/ha) was 2.0, the “ORYSAT preemergence herbicidal rating” value ([3]; rate 0.1250 kg/ha) was 2.0 and the “ORYSAT preemergence herbicidal rating” value ([3]; rate 0.2500 kg/ha) was 2.0. For the same molecule, the “ORYSAT preemergence herbicidal rating” value ([3]; rate 0.5000 kg/ha) was 3.0, the “Herbicidal rating ECHORC” value ([4]; 0.0313 kg/ha) was 2.0 and the “Herbicidal rating ECHORC” value ([4]; 0.0625 kg/ha) was 2.0. The “Herbicidal rating ECHORC” value ([4]; 0.1250 kg/ha) was 7.0, the “Herbicidal rating ECHORC” value ([4]; 0.2500 kg/ha) was 8.0 and the “Herbicidal rating ECHORC” value ([4]; 0.5000 kg/ha) was 9.0. The “Herbicidal rating CYPSE” value ([5]; 0.0313 kg/ha) was 0.0, the “Herbicidal rating CYPSE” value ([5]; 0.0625 kg/ha) was 0.0 and the “Herbicidal rating CYPSE” value ([5]; 0.1250 kg/ha) was 0.0. For the same molecule, the “Herbicidal rating CYPSE” value ([5]; 0.2500 kg/ha) was 0.0, the “Herbicidal rating CYPSE” value ([5]; 0.5000 kg/ha) was 0.0 and the “Herbicidal rating MOOVA” value ([7]; rate 0.0313 kg/ha) was 2.0. For the same molecule, the “Herbicidal rating MOOVA” value ([7]; rate 0.0625 kg/ha) was 4.5, the “Herbicidal rating MOOVA” value ([7]; rate 0.1250 kg/ha) was 5.5 and the “Herbicidal rating MOOVA” value ([7]; rate 0.2500 kg/ha) was 9.0. For the same molecule, the “Herbicidal rating MOOVA” value ([7]; rate 0.5000 kg/ha) was 9.0.

Reference: US20020137929A1, “1 - (3-heterocyclylphenyl) isothiourea, -isourea, -guanidine and -amidine herbicidal agents” (Intellectual Property Department, BASF Aktiengesellschaft, priority 1998, published 2002)
